In patent publication US5358951A, “Angiotensin II receptor blocking 2, 3, 6 substituted quinazolinones” (American Cyanamid Company, priority 1993, dated 1994):

System: vasopressor response of angiotensin II
Assay: AII Challenge: antagonism of angiotensin II vasopressor response;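 on Response Average Change: post-dose Angiotensin II-evoked rise in systolic blood pressure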
Format: in vivo
Details: for inhibition in vivo at 3 mg/kg / inhibition in vivo at 5 mg/kg: Rattus norvegicus; for inhibition in vivo at 3 mg/kg: iv; for inhibition in vivo at 5 mg/kg: po
Summary of the method: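 Conscious male SHR (16-20 weeks) with aortic and caval cannulae received angiotensin II at 0.05 and 0.1 ug/kg i.v. before and 30-300 min after compound dosing (i.v., i.p. or oral). Blockade is expressed as % of each rat's predose rise in systolic pressure.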

CCCCc1nc2ccc([C@@H]3C[C@H]4c5ccccc5CCN4O3)cc2c(=O)n1Cc1ccc(-c2ccccc2-c2nnn[nH]2)cc1 (relative stereo) [Example 63, Cis-2-Butyl-6-(1,5,6,10b-tetrahydro-2H-isoxazolo[3,2-a]isoquinolin-2-yl)-3-[[2'-(1H-tetrazol5-yl)[1,1'-biphenyl]-4-yl]methyl]-4(3H)-quinazolinone]
Response Average Change (3 mg/kg I.V., AII 0.05 mcg/kg IV, 30 min post dose): 10.5 mmHg
Response Average Change (3 mg/kg I.V., AII 0.05 mcg/kg IV, 90 min post dose): 10 mmHg
Response Average Change (3 mg/kg I.V., AII 0.05 mcg/kg IV, 120 min post dose): 10 mmHg
Response Average Change (3 mg/kg I.V., AII 0.05 mcg/kg IV, 180 min post dose): 17.5 mmHg
Response Average Change (3 mg/kg I.V., AII 0.05 mcg/kg IV, 240 min post dose): 12.5 mmHg
Response Average Change (3 mg/kg I.V., AII 0.05 mcg/kg IV, 300 min post dose): 23.5 mmHg
Response Average Change (3 mg/kg I.V., AII 0.1 mcg/kg IV, 30 min post dose): 10 mmHg
Response Average Change (3 mg/kg I.V., AII 0.1 mcg/kg IV, 60 min post dose): 15 mmHg
Response Average Change (3 mg/kg I.V., AII 0.1 mcg/kg IV, 90 min post dose): 17.5 mmHg
Response Average Change (3 mg/kg I.V., AII 0.1 mcg/kg IV, 120 min post dose): 17.5 mmHg
Response Average Change (3 mg/kg I.V., AII 0.1 mcg/kg IV, 180 min post dose): 22.5 mmHg
Response Average Change (3 mg/kg I.V., AII 0.1 mcg/kg IV, 240 min post dose): 23 mmHg
Response Average Change (3 mg/kg I.V., AII 0.1 mcg/kg IV, 300 min post dose): 25 mmHg
Response Average Change (3 mg/kg I.V., AII 0.5 mcg/kg IV, 60 min post dose): 10 mmHg
Response Average Change (5 mg/kg P.O., AII 0.05 mcg/kg IV, 30 min post dose): 22.5 mmHg
Response Average Change (5 mg/kg P.O., AII 0.05 mcg/kg IV, 60 min post dose): 30 mmHg
Response Average Change (5 mg/kg P.O., AII 0.05 mcg/kg IV, 90 min post dose): 20 mmHg
Response Average Change (5 mg/kg P.O., AII 0.05 mcg/kg IV, 120 min post dose): 16.5 mmHg
Response Average Change (5 mg/kg P.O., AII 0.05 mcg/kg IV, 180 min post dose): 20 mmHg
Response Average Change (5 mg/kg P.O., AII 0.1 mcg/kg IV, 30 min post dose): 35 mmHg
Response Average Change (5 mg/kg P.O., AII 0.1 mcg/kg IV, 60 min post dose): 42.5 mmHg
Response Average Change (5 mg/kg P.O., AII 0.1 mcg/kg IV, 90 min post dose): 34 mmHg
Response Average Change (5 mg/kg P.O., AII 0.1 mcg/kg IV, 120 min post dose): 32.5 mmHg
Response Average Change (5 mg/kg P.O., AII 0.1 mcg/kg IV, 180 min post dose): 24 mmHg
inhibition in vivo at 3 mg/kg (0.5 h, 3 mg/kg I.V., AII 0.05 mcg/kg IV, 30 min post dose): 70%
inhibition in vivo at 3 mg/kg (0.5 h, 3 mg/kg I.V., AII 0.1 mcg/kg IV, 30 min post dose): 73%
inhibition in vivo at 3 mg/kg (1 h, 3 mg/kg I.V., AII 0.1 mcg/kg IV, 60 min post dose): 60%
inhibition in vivo at 3 mg/kg (1 h, 3 mg/kg I.V., AII 0.5 mcg/kg IV, 60 min post dose): 71%
inhibition in vivo at 3 mg/kg (2 h, 3 mg/kg I.V., AII 0.05 mcg/kg IV, 120 min post dose): 71%
inhibition in vivo at 3 mg/kg (2 h, 3 mg/kg I.V., AII 0.1 mcg/kg IV, 120 min post dose): 53%
inhibition in vivo at 3 mg/kg (3 h, 3 mg/kg I.V., AII 0.05 mcg/kg IV, 180 min post dose): 50%
inhibition in vivo at 3 mg/kg (3 h, 3 mg/kg I.V., AII 0.1 mcg/kg IV, 180 min post dose): 40%
inhibition in vivo at 3 mg/kg (4 h, 3 mg/kg I.V., AII 0.05 mcg/kg IV, 240 min post dose): 64%
inhibition in vivo at 3 mg/kg (4 h, 3 mg/kg I.V., AII 0.1 mcg/kg IV, 240 min post dose): 39%
inhibition in vivo at 3 mg/kg (5 h, 3 mg/kg I.V., AII 0.05 mcg/kg IV, 300 min post dose): 33%
inhibition in vivo at 3 mg/kg (5 h, 3 mg/kg I.V., AII 0.1 mcg/kg IV, 300 min post dose): 33%
inhibition in vivo at 3 mg/kg ([…], 3 mg/kg I.V., AII 0.05 mcg/kg IV, 90 min post dose): 71%
inhibition in vivo at 3 mg/kg ([…], 3 mg/kg I.V., AII 0.1 mcg/kg IV, 90 min post dose): 53%
inhibition in vivo at 5 mg/kg (0.5 h, 5 mg/kg P.O., AII 0.05 mcg/kg IV, 30 min post dose): 49%
inhibition in vivo at 5 mg/kg (0.5 h, 5 mg/kg P.O., AII 0.1 mcg/kg IV, 30 min post dose): 18%
inhibition in vivo at 5 mg/kg (1 h, 5 mg/kg P.O., AII 0.05 mcg/kg IV, 60 min post dose): 32%
inhibition in vivo at 5 mg/kg (1 h, 5 mg/kg P.O., AII 0.1 mcg/kg IV, 60 min post dose): 0%
inhibition in vivo at 5 mg/kg (2 h, 5 mg/kg P.O., AII 0.05 mcg/kg IV, 120 min post dose): 63%
inhibition in vivo at 5 mg/kg (2 h, 5 mg/kg P.O., AII 0.1 mcg/kg IV, 120 min post dose): 24%
inhibition in vivo at 5 mg/kg (3 h, 5 mg/kg P.O., AII 0.05 mcg/kg IV, 180 min post dose): 55%
inhibition in vivo at 5 mg/kg (3 h, 5 mg/kg P.O., AII 0.1 mcg/kg IV, 180 min post dose): 44%
inhibition in vivo at 5 mg/kg ([…], 5 mg/kg P.O., AII 0.05 mcg/kg IV, 90 min post dose): 55%
inhibition in vivo at 5 mg/kg ([…], 5 mg/kg P.O., AII 0.1 mcg/kg IV, 90 min post dose): 20%
